Counter-ions that a name gives are not always drawn.
Legend:
[1] = Saturation concentration of bupivacaine hydrochloride in de-ionized water; format: physicochemical
Protocol: Bupivacaine hydrochloride (Sigma-Aldrich Corporation, St. Louis, Mo.) was dissolved in de-ionized (DI) water at a concentration of 40 mg/ml (saturation). A calculated amount of sodium hydroxide (in the form of 1 N solution) was added to the solution and the pH of the final mixtures was adjusted to ten to precipitate the Bupivacaine base. The precipitated product was filtered, and further washed with DI water for at least three times. The precipitated product was dried at ca. 40° C. in vacuum for 24 hours.

[2] = cited from earlier work

SMILES | concentration in de-ionized (DI) water (saturation) [1] [µg/mL] | reported solubility in water [2]
CCCCN1CCCCC1C(=O)Nc1c(C)cccc1C (centres unmarked) [Bupivacaine hydrochloride] | 40000 | 
CC(=O)OCC(COC(C)=O)OC(C)=O [triacetin] |  | 7.17 grams in 100 ml of water

— patent publication US8501215B2, “Injectable multimodal polymer depot compositions and uses thereof” (priority 2002, dated 2013)
